Results as given in patent US11458163B2, “Platinum(IV) conjugates and methods of use” (priority 2019, dated 2022).
“Also recorded” adds a separate entry of the source.

Assays:
[1] = system: AT84 murine head and neck squamous cell carcinoma cell line; test: Anti-proliferation study, AT84 cells (Resazurin Blue); assay type: cell-based, mouse; conditions: 72 hours, n=7-8
Procedure: AT84 cells were derived from a spontaneous squamous cell carcinoma in the oral mucosa of a C3H mouse (19,20) and were gifted by Aldo Venuti (Regina Elena National Cancer Institute, Rome, Italy). Cells tested negative for interspecies contamination (Idexx BioResearch, CellCheck STR profiling). Cells tested negative for rodent pathogens (Idexx BioResearch, IMPACT I PCR profile). Cells tested negative for Mycoplasm contamination (Lonza, Basel, Switzerland, MycoAlert test kit). Cells were cultured in RPMI-1640 media (Gibco, Thermo Fisher Scientific, Waltham, Mass.) supplemented with 10% FBS (Corning Corning, N.Y.), and 100 U/mL penicillin/100 μg/mL streptomycin (HyClone, Thermo Fisher Scientific, Waltham, Mass.) in a humidified incubator at 37° C. and 5% CO2.
AT84 cells were maintained in RPMI-1640 media (Gibco) with 10% fetal bovine serum (Corning), and 100 U/mL penicillin/100 μg/mL streptomycin (HyClone) in a humidified incubator at 37° C. and 5% CO2. Cells were seeded into 96-well plates (3,000 cells/well in 90 ul media) and allowed to attach overnight. […] Fluorescence (λex 550 nm, λem 605 nm) was quantified with a SpectraMax Gemini XS plate-reader (Molecular Devices, Sunnyvale, Calif.). […] Data from at least five separate experiments was analyzed using non-linear regression (GraphPad Prism 5.0) to generate […].

[2] = system: calreticulin (CRT); test: Calreticulin translocation in AT84 cells transfected with mouse CRT-HaloTag-KDEL fusion protein; assay type: cell-based; conditions: 500 μM, 12-15 hours (overnight)
Source text: Plasmid: The full cDNA sequence of the insert was published by Golden et al. (21) and codes for a mouse calreticulin-HaloTag®-KDEL fusion protein. The cDNA sequence includes Mus musculus calreticulin (Accession BC003453, Version BC003453.1, CDS 37-1286), the HaloTag® vector (Accession HM157289, Version HM157289.1, CDS 197-1081), and a KDEL sequence. This cDNA sequence was inserted into a mammalian expression vector, pD643-Rc, by DNA2.0 (now ATUM, Newark, Calif.). The vector includes a CayenneRFP reporter protein (Ex:554 nm/Em:590 nm) used to visualize positively transfected cells.
AT84 cells were plated in 6-well culture plates and allowed to grow to ˜90% confluence. Cells were transfected with a plasmid containing a mouse calreticulin-HaloTag®-KDEL fusion protein and a CayenneRFP reporter protein using lipofectamine (Invitrogen, Carlsbad, Calif.). Five microliters of lipofectamine was added to 150 μl Opti-MEM (Gibco, Thermo Fisher Scientific, Waltham, Mass.). Ten micrograms of plasmid DNA was added to 150 μl Opti-MEM. Both solutions were incubated at room temperature for 5 minutes. DNA solution was added to lipofectamine solution and incubated for 20 minutes at room temperature. During incubation, media on the cells were replaced with serum-free media (2 mL). 250 μl of DNA:lipofectamine solution was added dropwise to each well, which contained 2 mL of serum-free media. […]

[3] = cited from earlier work
[4] = system: calf thymus DNAs; conditions: cited from earlier work
[5] = system: naturally occurring cancers; test: Open-label compassionate-care clinical trial of intralesional therapy in pet dogs; assay type: in vivo, dog; conditions: proposed dose level
Procedure: An open-label, compassionate-care clinical trial was conducted in pet dogs with various types of cancer to evaluate the feasibility of intralesional delivery of Pt(IV)-toco/HA-toco composition as chemotherapy. The most common types of cancer include squamous cell carcinoma, soft tissue sarcoma, and oral melanoma. Typical exclusion criteria such as small breeds, large tumor burden, short life expectancy, metastatic disease, and certain pre-existing conditions (e.g., Cushing's disease) were not implemented in this study.
The reported study was conducted in 18 veterinary hospitals in the Kansas City area. Most pets received either Pt(IV)-toco/HA-toco or HylaPlat treatment at 3-week intervals for up to 10 treatments, ranging from 1 to 17.5 mg/m^2 on cisplatin basis. Clinical chemistry and hematology were obtained before and after each treatment to evaluate the tolerability of the therapy. A physical exam including measurements of tumor(s) was performed approximately every 3-weeks to monitor the response status of the subjects.

[6] = system: AT84 allografts; test: Immunocompetent tumor model: orthotopic AT84 allografts in C3H mice; assay type: in vivo
Procedure: Wildtype C3H mice (Charles River Strain 025, 6-8 weeks old, 20-25 g) were used for in vivo tumor studies. Both male and female mice were used in the studies. […] Mice were anesthetized using 5% isoflurane in O2 for 5 minutes. One million AT84 cells in 50 μl PBS were injected subcutaneous (s.c.) into the floor of the mouth via an extra-oral route of C3H mice to obtain orthotopic allograft tumors (19,20). […] Under isoflurane anesthesia, Pt(IV)-toco/HA-toco composition (3 mg/kg on Pt(IV)-toco basis) or vehicle (50 μl hyaluronan-tocopherol, 16.7 mg/mL) was injected intratumoral on days 4, 11, and 18 after the tumor cell injection. Tumor size was calculated: tumor volume (mm^3)=0.52×(width)^2×length, where length is the longer of two perpendicular dimensions.

[7] = system: MDA-1986 xenografts; test: Immunodeficient tumor model: orthotopic MDA-1986 xenografts in nude mice; assay type: in vivo
Procedure: Nude mice (Charles River Ath/nu, 6-8 weeks old, 20-25 g) were used for in vivo tumor studies. Both male and female mice were used in the studies. […] Mice were anesthetized using 5% isoflurane in O2 for 5 minutes. One million MDA-1986 cells in 50 μl PBS were injected subcutaneous into the left cheek of nude mice to obtain orthotopic xenograft tumors (13,15). Treatment began when tumors reached 75 mm^3. Under isoflurane anesthesia, Pt(IV)-toco/HA-toco composition (3 mg/kg on Pt(IV)-toco basis) or vehicle (1.5 MDa hyaluronan, 16.7 mg/mL) was injected intratumoral on days 14, 21, and 28 after the tumor cell injection. Tumor size was calculated using the same equation as stated in the C3H model.

[8] = Ongoing tolerability studies in rabbits; assay type: in vivo; conditions: proposed dose level
[9] = last pair of measurements vs control, 3 mg/kg intratumoral once per week for 3 weeks

N.N.[Cl][Pt][Cl] [cisplatin, Cis-Dichlorodiamine platinum (II)]
IC50 [1]: 3 ± 0.26 µM
CRT translocation to the cell surface (indicator of ICD) [2]: does not cause CRT translocation to the membrane; also recorded: does not show CRT translocation
safety in cats [3]: hydrothorax, pulmonary and mediastinal edema

O=C1[O][Pt]2([NH][C@@H]3CCCC[C@H]3[NH]2)[O]C1=O [oxaliplatin, Oxaliplatin]
CRT translocation to the cell surface (indicator of ICD) [2]: membrane translocation of CRT is observed; also recorded: show CRT translocation
formation of Pt-DNA adducts relative to cisplatin [4]: approximately one tenth

Pt(IV)-Su-Gly-Toco [Pt(IV)-toco]
dose-limiting toxicities (renal dysfunction, ototoxicity, peripheral neuropathy) [5]: did not cause any dose-limiting toxicities
tumor volume, mean±SEM, last pair of measurements ([6]; 3 mg/kg on Pt(IV)-toco basis intratumoral, days 4, 11, 18): 1024±129 mm^3
survival rate ([6]; by the time all control mice have succumbed): 100%
tumor inhibition [6, 9]: 49%
tumor volume, mean SEM, last pair of measurements ([7]; 3 mg/kg on Pt(IV)-toco basis intratumoral, days 14, 21, 28): 812±150 mm^3
tumor inhibition [7, 9]: 43%
dose-limiting toxicities (renal dysfunction, ototoxicity, peripheral neuropathy) [8]: did not cause any dose-limiting toxicities

N.N.O=C([O-])C1(C(=O)[O-])CCC1.[Pt+2] [carboplatin]
safety in cats [3]: may be safe
